What was measured:
[1] = system: HCV 1a Wild-type replicon; test: microbe, parasite or virus in culture; conditions: Hepatitis C virus, Huh-7, read-out: Mean EC50 (nM) ± SD
[2] = system: Wild-type HCV 1b replicon; type: cell-based; conditions: Hepatitis C virus, read-out: Mean EC50 (nM)

| SMILES | EC50 [1] [nM] | EC50 [2] [nM] |
| --- | --- | --- |
| CNC(=O)c1c(-c2ccc(F)cc2)oc2cc(N(CCO)S(C)(=O)=O)c(C3CC3)cc12 [HCV-796] | 11.8 | – |
| CC(C)(C)OC(=O)N[C@H]1CCCCC/C=C\[C@@H]2C[C@@]2(C(=O)NS(=O)(=O)C2CC2)NC(=O)[C@@H]2C[C@@H](OC(=O)N3Cc4cccc(F)c4C3)CN2C1=O [ASC08, Danoprevir] | 5.4 | 0.7 |

Reference: patent US20210038681A1, “PHARMACEUTICAL COMPOSITION FOR TREATING VIRAL HEPATITIS C” (priority 2018, published 2021)
